Data taken from ChEMBL document CHEMBL4406833 (Eur J Med Chem, 2019).
In brackets after ≈: the same amount, converted by molar mass.

How the values were obtained:
[1] = Toxicity in C57BL6 mouse allografted with Lewis cells assessed as increase in body weight at 60 mg/kg, ig measured every 3 days for 30 days; assay type: organism-based; details: in vivo, po, 720 h
[2] = molecular target: Tryptophan 2,3-dioxygenase (Homo sapiens, UniProt P48775); experiment: Inhibition of N-terminal His-tagged human TDO expressed in Escherichia coli expression system
Tryptophan 2,3-dioxygenase, sequence (P48775 whole entry): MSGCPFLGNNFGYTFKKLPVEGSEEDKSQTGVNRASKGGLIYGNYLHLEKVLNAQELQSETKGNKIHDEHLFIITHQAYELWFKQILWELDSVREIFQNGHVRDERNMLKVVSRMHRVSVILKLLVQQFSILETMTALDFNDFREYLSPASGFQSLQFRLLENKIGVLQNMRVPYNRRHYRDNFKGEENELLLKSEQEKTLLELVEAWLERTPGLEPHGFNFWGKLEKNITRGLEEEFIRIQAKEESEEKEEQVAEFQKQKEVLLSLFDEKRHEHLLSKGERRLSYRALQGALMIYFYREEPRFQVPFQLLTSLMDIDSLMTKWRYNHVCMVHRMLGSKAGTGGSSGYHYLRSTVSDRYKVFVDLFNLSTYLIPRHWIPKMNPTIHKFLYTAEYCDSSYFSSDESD

[3] = test system: Lewis lung carcinoma cell line; experiment: Antimetastatic activity against LLC cells allografted in C57BL6 mouse assessed as inhibition of metastatic nodules in lung at 60 mg/kg, ig after 30 days by H and E staining based analysis relative to control; assay type: functional; details: po, 720 h
[4] = molecular target: T1, Indoleamine 2,3-dioxygenase 2 (Homo sapiens, UniProt Q6ZQW0); experiment: Inhibition of N-terminal His-tagged human IDO2 expressed in Escherichia coli expression system
T1 sequence (Q6ZQW0 whole entry): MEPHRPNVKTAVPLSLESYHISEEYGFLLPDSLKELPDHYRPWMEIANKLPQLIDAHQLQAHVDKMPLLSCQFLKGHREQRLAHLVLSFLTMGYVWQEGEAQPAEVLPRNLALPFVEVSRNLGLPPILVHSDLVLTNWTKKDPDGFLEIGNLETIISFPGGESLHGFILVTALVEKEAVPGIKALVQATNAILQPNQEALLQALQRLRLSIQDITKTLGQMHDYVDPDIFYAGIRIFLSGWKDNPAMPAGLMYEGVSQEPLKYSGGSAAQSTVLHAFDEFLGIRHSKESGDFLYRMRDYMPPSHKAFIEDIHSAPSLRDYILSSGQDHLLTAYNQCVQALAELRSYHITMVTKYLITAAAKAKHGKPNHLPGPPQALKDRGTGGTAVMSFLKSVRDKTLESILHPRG

[5] = Apparent permeability across apical to basolateral side in human Caco2 cells upto 90 mins by LC-MS/MS analysis; assay type: ADME, cell-based; details: Caco-2
[6] = test system: Lewis lung carcinoma cell line; experiment: Antimetastatic activity against LLC cells allografted in C57BL6 mouse assessed as number of metastatic nodules in lung at 60 mg/kg, ig after 30 days by H and E staining based analysis; assay type: functional
[7] = Aqueous solubility of compound at 1 mg after 30 hrs by HPLC analysis; assay type: physicochemical
[8] = molecular target: Indoleamine 2,3-dioxygenase 1 (Homo sapiens, UniProt P14902); experiment: Inhibition of IDO1 in human HeLa cells using L-tryptophan as substrate incubated for 48 hrs; assay type: cell-based
Indoleamine 2,3-dioxygenase 1, sequence (P14902 whole entry): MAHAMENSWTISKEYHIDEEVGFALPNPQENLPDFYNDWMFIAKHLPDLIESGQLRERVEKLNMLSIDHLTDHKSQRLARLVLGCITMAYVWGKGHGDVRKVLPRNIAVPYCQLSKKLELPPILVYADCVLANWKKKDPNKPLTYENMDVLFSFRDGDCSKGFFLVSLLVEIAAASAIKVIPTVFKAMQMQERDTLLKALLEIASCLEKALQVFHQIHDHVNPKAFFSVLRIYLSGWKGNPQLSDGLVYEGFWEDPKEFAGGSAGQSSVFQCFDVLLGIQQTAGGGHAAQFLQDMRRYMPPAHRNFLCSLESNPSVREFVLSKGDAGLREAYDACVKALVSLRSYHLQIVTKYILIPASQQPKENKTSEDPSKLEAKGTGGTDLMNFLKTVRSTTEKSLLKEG

For `NS(=O)(=O)NCCNc1nonc1C(=NO)Nc1ccc(F)c(Br)c1` [EPACADOSTAT], which Activity [1] is on record?
The Activity was “Toxic”.

What about the IC50 [2] of the same compound?
The IC50 was over 10000 nM.

And the inhibition in vivo at 60 mg/kg [3]?
Its inhibition in vivo at 60 mg/kg is 77%.

What about the IC50 [4] of the same compound?
Its IC50 is 710 nM.

What about the Papp A→B at 1.5 h [5] of the same compound?
Its Papp A→B at 1.5 h is 3.1 ×10⁻⁶ cm/s.

What about the Activity [6] of the same compound?
The Activity was 21.

And the solubility at 30 h [7]?
The solubility at 30 h was 130 µg/mL (≈ 297 µM).

With `CCOP(=O)(Cc1cccc2ccccc12)NCCNc1nonc1/C(=N/O)Nc1ccc(F)c(Br)c1` (stereo not given) as the compound, how does the IC50 [8] read?
The IC50 was 126 nM.

Which IC50 [8] does the source give for `CCOP(=O)(Cc1ccccc1)NCCNc1nonc1/C(=N/O)Nc1ccc(F)c(Br)c1` (stereo not given) here?
Its IC50 is 119 nM.

For `CCOP(=O)(NCCNc1nonc1/C(=N/O)Nc1ccc(F)c(Br)c1)c1ccccc1` (stereo not given), which IC50 [8] is on record?
The IC50 was 132 nM.
